Laboratory results from patent US7879866B2, “Inhibition of the activity of the capsaicin receptor in the treatment of obesity or obesity-related diseases and disorders” (Dorte Xenia Gram, priority 2004, dated 2011).

Key:
iNOS = assay: Relative gene expression of iNOS in mesenteric adipose tissue (quantitative RT-PCR); format: in vivo, rat; details: 9 month old Zucker obese rats; 1 hour after BCTC 15 mg/kg po; vehicle as calibrator, 36B4 internal standard
Experimental: (§1) At 9 months of age, the same rats were tested re. mesenteric inflammatory mediators. The rats were fasted for 18 hours where after they were given BCTC at 15 mg/kg (n=10) or vehicle (n=9) orally by gavage. One hour after treatment, the rats were anaesthetized in isoflurane and decapitated. The mesenteric adipose tissue was quickly removed and transferred to 10× volume pre-chilled RNAlater (Sigma-Aldrich, USA) and stored at −20° C. To prevent area to area effect on gene expressions patterns, 0, 5-1 g tissue was homogenized in TRIzol Reagent (1 ml/100 mg tissue) (TRIzol; Invitrogen Corp.). […] PCR amplification mixtures (25 μl) contained 12.5 μl of 2× Platinum Quantitative PCR SuperMix-UDG (Invitrogen Corp.), 0.625 μl of reverse primer (20 μM), 0.625 μl forward primers (20 μM), 0.625 μl Probe (10 μM) (ProbeLibrary Exiqon A/S, Denmark) and 5 μl diluted cDNA template. Real-time quantitative PCR was carried out using MX3000P PCR machine (Stratagene, USA) with the following cycling parameters: polymerase activation for 10 minutes at 95° C. and amplification for 40 cycles of 30 seconds at 95° C. and 60 seconds at 60° C. […]
(§2) Relative gene expression of iNOS and F4/80 were determined by quantitative RT-PCR comparative Ct method (Applied Biosystems. User Bulletin #2. ABI PRISM 7700 sequence detection system, 1997) using vehicle as calibrator. […]

F4/80 = assay: Relative gene expression of F4/80 in mesenteric adipose tissue (quantitative RT-PCR); format: in vivo, rat; details: 9 month old Zucker obese rats; 1 hour after BCTC 15 mg/kg po; vehicle as calibrator, 36B4 internal standard
Experimental: as §1, §2

male Zucker obese rats = assay: Oral glucose tolerance test (OGTT) and glucose stimulated insulin secretion after oral BCTC; format: in vivo, rat; details: 6 month old male Zucker obese rats; BCTC 15 mg/kg p.o. at -30 min; glucose 2 g/kg po at time 0; vs vehicle
From the text: Laboratory animals: Male (n=19) Zucker obese rats were purchased from Charles River Laboratories, U.S. The rats were transported to Denmark at the age of 6 weeks and were kept under ambient controlled conditions on a normal day light cycle (lights on at 6 am, lights off at 6 pm) at the Måløv Animal Unit at Novo Nordisk A/S, Denmark from then and until the age of 9 month of age. The rats were kept in groups of 3 rats per cage until the end of the experiment in standard cages (Eurostandard Type IV, Techniplast, Scanbur, Denmark) and were given free access to acidified (0.4% citric acid) tap water and standard chow (Altromin, Brogaarden Aps, Denmark). The cages were supplied with wooden wool (Brogaarden, Denmark) as nesting material and the bedding material was aspen chips (Brogaarden, Denmark), changed twice per week as was the bottles of acidified water.
At 6 month of age, an OGTT was performed shortly after administering a capsaicin receptor antagonist (BCTC) orally. […] Fasting blood glucose and plasma insulin was determined as described below. […] The rats were left in the cage until time 0 where blood glucose was assessed followed by the OGTT. […] Blood glucose and plasma insulin was determined at time 30, 60 and 120 min after glucose. […] Following the experiment, glucose was determined using the glucose oxidase method (EBIO, Eppendorf, Germany). […]

capsaicin receptor = target: T1, capsaicin receptor (Rattus norvegicus, UniProt O35433); details: literature refs 22, 23; cited from earlier work
T1 construct: host or cells: whole animal (in vivo pain models)
T1 sequence (O35433 whole entry): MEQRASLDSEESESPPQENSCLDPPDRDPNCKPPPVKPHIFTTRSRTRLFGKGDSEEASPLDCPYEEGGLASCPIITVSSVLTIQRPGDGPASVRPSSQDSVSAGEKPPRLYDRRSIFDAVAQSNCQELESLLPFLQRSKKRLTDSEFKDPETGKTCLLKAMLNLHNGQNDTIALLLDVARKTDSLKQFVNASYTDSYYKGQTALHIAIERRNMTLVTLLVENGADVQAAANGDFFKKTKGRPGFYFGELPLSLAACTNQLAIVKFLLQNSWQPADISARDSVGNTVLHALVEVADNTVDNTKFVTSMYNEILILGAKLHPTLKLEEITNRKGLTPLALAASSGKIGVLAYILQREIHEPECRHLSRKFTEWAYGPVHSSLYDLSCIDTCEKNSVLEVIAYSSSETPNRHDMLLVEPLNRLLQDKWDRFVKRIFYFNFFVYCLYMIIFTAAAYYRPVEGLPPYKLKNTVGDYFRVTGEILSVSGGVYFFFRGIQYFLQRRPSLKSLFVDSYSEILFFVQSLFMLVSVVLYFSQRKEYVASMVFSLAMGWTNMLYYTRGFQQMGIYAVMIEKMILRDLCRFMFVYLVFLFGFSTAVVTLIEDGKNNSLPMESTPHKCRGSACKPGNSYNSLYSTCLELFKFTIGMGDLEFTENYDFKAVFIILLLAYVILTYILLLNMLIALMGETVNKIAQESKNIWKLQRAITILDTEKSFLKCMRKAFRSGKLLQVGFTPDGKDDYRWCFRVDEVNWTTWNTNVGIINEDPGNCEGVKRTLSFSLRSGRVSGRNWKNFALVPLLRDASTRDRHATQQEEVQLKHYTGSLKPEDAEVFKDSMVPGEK

With `CC(C)(C)c1ccc(NC(=O)N2CCN(c3ncccc3Cl)CC2)cc1` [BCTC, N-(4-tertiarybutylphenyl)-4-(3-chloropyridin-2-yl)tetrahydropyrazine-1(2H)-carbox-amide] as the compound, how does the “gene expression of iNOS in mesenteric adipose tissue” value (iNOS) read?
The value was “significantly lower level”.

What about the “gene expression of F4/80 in mesenteric adipose tissue” value (F4/80) of the same compound?
Its value is “significantly lower level”.

What about the “blood glucose after oral glucose tolerance test” value (male Zucker obese rats) of the same compound?
The value was “diminished rise in blood glucose”.

What about the “plasma insulin after oral glucose load (glucose stimulated insulin response)” value (male Zucker obese rats) of the same compound?
The value was “considerable higher levels of insulin in plasma”.

What about the “inhibiting capsaicin-mediated hyperalgesia, inflammatory hyperalgesia or allodynia, and hyperalgesia after nerve injury” value (capsaicin receptor) of the same compound?
Its value is “shown effective”.
